pIC50: −log10 of the molar value.

One assay deals with T1, Axl (Homo sapiens, UniProt P30530).
T1 construct: endogenous in cells; host or cells: HeLa cells
T1 sequence (P30530 26-894): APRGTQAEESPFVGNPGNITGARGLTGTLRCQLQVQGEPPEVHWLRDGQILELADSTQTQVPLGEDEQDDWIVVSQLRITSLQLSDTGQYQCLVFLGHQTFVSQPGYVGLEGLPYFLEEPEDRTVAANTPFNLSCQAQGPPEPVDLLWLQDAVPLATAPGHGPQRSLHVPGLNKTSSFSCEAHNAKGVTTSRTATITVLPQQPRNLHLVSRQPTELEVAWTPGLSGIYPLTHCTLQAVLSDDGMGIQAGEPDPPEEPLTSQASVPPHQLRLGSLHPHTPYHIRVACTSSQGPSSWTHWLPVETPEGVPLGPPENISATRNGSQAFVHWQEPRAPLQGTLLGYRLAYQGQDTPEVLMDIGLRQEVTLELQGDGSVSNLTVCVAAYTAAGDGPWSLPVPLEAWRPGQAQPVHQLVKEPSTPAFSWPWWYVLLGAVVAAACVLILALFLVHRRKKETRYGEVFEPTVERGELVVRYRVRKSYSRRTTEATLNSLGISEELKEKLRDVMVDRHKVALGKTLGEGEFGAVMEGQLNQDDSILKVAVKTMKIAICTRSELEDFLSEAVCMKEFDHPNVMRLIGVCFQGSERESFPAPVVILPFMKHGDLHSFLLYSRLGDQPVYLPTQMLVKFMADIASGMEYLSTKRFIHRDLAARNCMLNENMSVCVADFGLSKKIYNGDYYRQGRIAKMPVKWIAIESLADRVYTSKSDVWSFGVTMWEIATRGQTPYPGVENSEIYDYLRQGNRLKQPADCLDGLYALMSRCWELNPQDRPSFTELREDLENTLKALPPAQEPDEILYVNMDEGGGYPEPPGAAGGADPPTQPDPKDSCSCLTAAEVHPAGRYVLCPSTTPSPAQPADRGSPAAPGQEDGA
The experiment in a line: Phospho-Akt In-Cell Western Assay (inhibition of Axl activity after Axl-antibody cross-linking). It counts as cell-based. To be noted: Hela cells, phospho-Akt chemiluminescence normalized to relative cell number; compounds of formula (Ia), Table 1; read-out: IC50. How it is done:
The compounds of the invention were tested in the following assay for their ability to inhibit Axl activity.
Phospho-Akt In-Cell Western Assay
• Cell culture plate: 96 well assay plate (Corning 3610), white, clear bottom, tissue-culture treated. • Cells: Hela cells. • Starvation medium: For Axl stimulation: 0.5% FCS (fetal calf serum) in DMEM, plus Axl/Fc (extracellular domain of AXL fused to immunoglobulin Fc region) (R&D, 154-AL) 500 ng/mL. • For EGF (epidermal growth factor) stimulation: 0.5% FCS in DMEM (Dulbecco's modified Eagles medium). • Poly-L-Lysine 0.01% solution (the working solution): […], dilute In PBS (phosphate buffered saline). • Axl antibody cross-linking: • 1st: Mouse anti-Axl (R&D, MAB154). • 2nd: Biotin-SP-conjugated AffiniPure goat anti-mouse IgG (H+ L) (Jackson ImmunoResearch #115-065-003). • Fixing buffer: 4% formaldehyde in PBS. • Wash buffer: 0.1% TritonX-100 in PBS. • Quenching buffer: 3% H2O2, 0.1% Azide in wash buffer, Azide and hydrogen peroxide (H2O2) are added fresh. • Blocking buffer: 5% BSA in TBST (tris buffered saline plus 0.1% Tween 20). • Primary antibody: Rabbit anti-human Phospho-Akt antibody (Cell Signaling 9271): 1×250 diluted in blocking buffer. • Secondary antibody: HRP (horse radish peroxidase)-conjugated Goat anti-Rabbit secondary, stock solution: Jackson ImmunoResearch (Goat anti-Rabbit HRP, #111-035-144) 1:1 diluted in glycerol, store at −20° C. The working solution: 1×2000 dilution of stock in blocking buffer. • Chemiluminescent working solution (Pierce, 37030): SuperSignal ELISA (enzyme linked immunosorbant assay) Pico Chemiluminescent substrate. • Crystal Violet solution: Stock: 2.5% Crystal violet in methanol, filtered and kept at ambient temperature. The working solution: dilute the stock 1:20 with PBS immediately before use. • 10% SDS: working solution: 5% SDS (sodium dodecylsulfate), diluted in PBS Methods: Day 1:
A 96 well TC (tissue culture treated) plate was coated with 10 μg/mL poly-L-Lysine at 37° C. for 30 min, washed twice with PBS, and air-dried for 5 minutes before cells were added. Hela cells were seeded at 10,000 cells/well and the cells were starved in 100 μL starvation medium containing Axl/Fc for 24 hrs.
The cells were pre-treated with test compounds by adding 100 μL of 2× test compound to the starvation medium on the cells. The cells were incubated at 37° C. for 1 hr before stimulation.
The resulting mix was warmed to 37° C. 50 μL of 5×Axl 1st/2nd of antibody cluster was added to the cells and the cells were incubated at 37° C. for 5 min.
After 5 minutes stimulation, the plate was flicked to remove medium and the plate was tapped onto paper towels. Formaldehyde (4.0% in PBS, 100 μL) was added to fix the cells and the cells were incubated at ambient temperature for 20 min without shaking.
The cells were washed with a plate washer buffer to remove the formaldehyde solution. The plate was flicked to removed excess wash buffer and tapped onto paper towels. Quenching buffer (100 μL) was added to each well and the cells were incubated at ambient temperature for 20 minutes without shaking.
The cells were washed with a plate washer buffer to remove the quenching buffer. Blocking buffer (100 μL) was added and the cells were incubated at ambient temperature for at least an hour with gentle shaking.
The cells were washed with a plate washer buffer and diluted primary antibody (50 μL) was added to each well (blocking buffer was added to the negative control wells instead). The plates were incubated overnight at 4° C. with gentle shaking.
The wash buffer was removed, diluted secondary antibody (100 μL) was added, and the cells were incubated at ambient temperature for 1 hour with gentle shaking. During the incubation, the chemiluminescent reagent was brought to ambient temperature.
The secondary antibody was removed by washing the cells 1× with wash buffer, 1× with PBS by plate washer.
Take `Nc1nc(Nc2ccc(N3CCC(N4CCCC4)CC3)c(F)c2)nn1-c1cc2c(nn1)CCCc1ccccc1-2` [Compound 71, 1-(6,7-dihydro-5H-benzo[6,7]cyclohepta[4,5-c]pyridazin-2-yl)-N^3-(3-fluoro-4-(4-(pyrrolidinyl)piperidinyl)-phenyl)-1H-1,2,4-triazole-3,5-diamine]: the pIC50 (usually −log10 of the IC50, conventionally taken in molar units) is more than 6.00. On to `CN(C1CCCC1)C1CCN(c2ccc(Nc3nc(N)n(-c4cc5c(nn4)-c4ccccc4CCC5)n3)cc2F)CC1` [Compound 82, 1-(6,7-dihydro-5H-benzo[6,7]cyclohepta[1,2-c]pyridazin-3-yl)-N^3-(3-fluoro-4-(4-(N-methyl-cyclopentylamino)-piperidinyl)phenyl)-1H-1,2,4-triazole-3,5-diamine], for which the negative-log IC50 (pIC50) is more than 6.00.

Regarding `COc1cc2c(cc1OC)-c1nnc(-n3nc(Nc4ccc(N5CCC(N6CCCC6)CC5)c(F)c4)nc3N)cc1CCC2` [Compound 64, 1-(6,7-dihydro-5H-9,10-dimethoxybenzo[6,7]cyclo-hepta[1,2-c]pyridazin-3-yl)-N^3-(3-fluoro-4-(4-pyrrolidin-1-yl-piperidin-1-yl)phenyl)-1H-1,2,4-triazole-3,5-diamine], the pIC50 is 5.00 to 6.00. Regarding `CCN(CC)C1CCN(c2ccc(Nc3nc(N)n(-c4cc5c(nn4)-c4ccccc4CCC5)n3)cc2F)CC1` [Compound 36, 1-(6,7-dihydro-5H-benzo[6,7]cyclohepta[1,2-c]pyridazin-3-yl)-N^3-(3-fluoro-4-(4-(diethylamino)piperidin-1-yl)phenyl)-1H-1,2,4-triazole-3,5-diamine], the pIC50 is more than 6.00. Turning to `Nc1nc(Nc2ccc(N3CCN(C4CCCCC4)CC3)cc2)nn1-c1cc2c(nn1)-c1ccccc1CCC2` [Compound 3, N^3-(4-(4-cyclohexanylpiperazin-1-yl)phenyl)-1-(6,7-dihydro-5H-benzo[6,7]cyclohepta[1,2-c]pyridazin-3-yl)-1H-1,2,4-triazole-3,5-diamine], the pIC50 was more than 6.00. On to `Nc1nc(Nc2ccc(OCCN3CCCC3)c(F)c2)nn1-c1ncc2c(n1)-c1ccccc1CCC2` [Compound 44, 1-(6,7-dihydro-5H-benzo[6,7]cyclohepta[1,2-d]pyrimidin-2-yl)-N^3-(3-fluoro-4-(2-(pyrrolidin-1-yl)ethoxy)phenyl)-1H-1,2,4-triazole-3,5-diamine], for which the pIC50 is more than 6.00. With `Nc1nc(Nc2ccc(CN3CCC(N4CCCC4)CC3)cc2)nn1-c1cc2c(nn1)-c1ccccc1CCC2` [Compound 103, 1-(6,7-dihydro-5H-benzo[6,7]cyclohepta[1,2-c]pyridazin-3-yl)-N^3-(4-((4-pyrrolidin-1-ylpiperidinyl)methyl)phenyl)-1H-1,2,4-triazole-3,5-diamine], the pIC50 was more than 6.00.

The assay is the same for the next values; noted with them: Hela cells, phospho-Akt chemiluminescence normalized to relative cell number; compounds of formula (Ib), Table 2; read-out: IC50.
`Cc1cc(Nc2nc(N)nn2-c2cc3c(nn2)-c2ccccc2CCC3)cnc1N1CCC(N2CCCC2)CC1` [Compound 173, 1-(6,7-dihydro-5H-benzo[6,7]cyclohepta[1,2-c]pyridazin-3-yl)-N^5-(6-(4-(pyrrolidin-1-yl)piperidin-1-yl)-5-methylpyridin-3-yl)-1H-1,2,4-triazole-3,5-diamine]: the pIC50 is 5.00 to 6.00.

The same assay, now with this note: inhibition of Axl activity; Table 1, compounds of formula (Ia); read-out: IC50.
As for `Cc1csc2c(-n3nc(Nc4cnc5c(c4)CC4(CCC5)OCCO4)nc3N)nc(Cl)nc12` [Compound 240, 1-(2-chloro-7-methylthieno[3,2-d]pyrimidin-4-yl)-N^3-(5,7,8,9-tetrahydrospiro[cyclohepta[b]pyridine-6,2′-[1,3]dioxolane]-3-yl)-1H-1,2,4-triazole-3,5-diamine], the pIC50 is more than 6.00. As for `Nc1nc(Nc2ccc3c(c2)CN(C2CCCC2)CC3)nn1-c1cc2c(nn1)-c1ccccc1CCC2` [Compound 153, 1-(6,7-dihydro-5H-benzo[6,7]cyclohepta[1,2-c]pyridazin-3-yl)-N^3-(2-cyclopentyl-1,2,3,4-tetrahydroisoquinolin-7-yl)-1H-1,2,4-triazole-3,5-diamine], the pIC50 was more than 6.00. For the compound `Nc1nc(Nc2ccc(N3CCN4CCCCC4C3)c(F)c2)nn1-c1cc2c(nn1)-c1ccccc1CCC2` (stereo not shown) [Compound 128, 1-(6,7-dihydro-5H-benzo[6,7]cyclohepta[1,2-c]pyridazin-3-yl)-N^3-(3-fluoro-4-(octahydro-1H-pyrido[1,2-a]pyrazin-2-yl)phenyl)-1H-1,2,4-triazole-3,5-diamine], the pIC50 was 5.00 to 6.00.

For `CN1CCCC(Oc2ccc(Nc3nc(N)n(-c4cc5c(nn4)-c4ccccc4CCC5)n3)cc2)C1` (stereo not shown) [Compound 210, 1-(6,7-dihydro-5H-benzo[6,7]cyclohepta[1,2-c]pyridazin-3-yl)-N^3-(4-(1-methylpiperidin-3-yl-oxy)phenyl)-1H-1,2,4-triazole-3,5-diamine], the negative-log IC50 (pIC50) is more than 6.00. With `Nc1nc(Nc2ccc(C=CCN3CCOCC3)cc2)nn1-c1cc2c(nn1)-c1ccccc1CCC2` [Compound 207, 1-(6,7-dihydro-5H-benzo[6,7]cyclohepta[1,2-c]pyridazin-3-yl)-N^3-(4-(morpholin-4-ylprop-1-enyl)phenyl)-1H-1,2,4-triazole-3,5-diamine], the pIC50 was more than 6.00.

As for `Nc1nc(Nc2ccc(C3CCN(CC4CC4)CC3)cc2)nn1-c1cc2c(nn1)-c1ccccc1CCC2` [Compound 212, 1-(6,7-dihydro-5H-benzo[6,7]cyclohepta[1,2-c]pyridazin-3-yl)-N^3-(4-(1-cyclopropylmethylpiperidin-4-yl)phenyl)-1H-1,2,4-triazole-3,5-diamine], the pIC50 was more than 6.00.

Take `CC(C)N1CCN(CC=Cc2ccc(Nc3nc(N)n(-c4cc5c(nn4)-c4ccccc4CCC5)n3)cc2)CC1` [Compound 205, 1-(6,7-dihydro-5H-benzo[6,7]cyclohepta[1,2-c]pyridazin-3-yl)-N^3-(4-(4-isopropylpiperazin-1-ylprop-1-enyl)phenyl)-1H-1,2,4-triazole-3,5-diamine]: the pIC50 is more than 6.00. The same measure, in the same setting: with `COC(=O)[C@@H]1CCCN1C1CCc2ccc(Nc3nc(N)n(-c4cc5c(nn4)-c4ccccc4CCC5)n3)cc2CC1` (stereo partly drawn) [Compound 194, 1-(6,7-dihydro-5H-benzo[6,7]cyclohepta[1,2-c]pyridazin-3-yl)-N^3-((7-(2-(S)-methyloxycarbonyl)pyrrolidin-1-yl)-6,7,8,9-tetrahydro-5H-benzo[7]annulene-2-yl)-1H-1,2,4-triazole-3,5-diamine] the figure was more than 6.00.

For the origin of these results see US7709482B2, “Polycyclic heteroaryl substituted triazoles useful as Axl inhibitors” (Rigel Pharmaceuticals, Inc., priority 2006, dated 2010).
